Results on one compound are retold here after publication PMC8551263, “Optineurin modulates the maturation of dendritic cells to regulate autoimmunity through JAK2-STAT3 signaling” (Nature Communications, 2021).

This assay addresses T1, OPTN (Homo sapiens, UniProt Q96CV9).
T1 construct: protein for SPR
In words: surface plasmon resonance. Type of assay: binding. Particulars: rapid on-rate and off-rate kinetics; sensorgrams in Supplementary Fig. 7a, b. A general note: In SPR one partner is held on a chip, and binding of the other changes the refractive index at the surface.

T1 sequence (Q96CV9 whole entry): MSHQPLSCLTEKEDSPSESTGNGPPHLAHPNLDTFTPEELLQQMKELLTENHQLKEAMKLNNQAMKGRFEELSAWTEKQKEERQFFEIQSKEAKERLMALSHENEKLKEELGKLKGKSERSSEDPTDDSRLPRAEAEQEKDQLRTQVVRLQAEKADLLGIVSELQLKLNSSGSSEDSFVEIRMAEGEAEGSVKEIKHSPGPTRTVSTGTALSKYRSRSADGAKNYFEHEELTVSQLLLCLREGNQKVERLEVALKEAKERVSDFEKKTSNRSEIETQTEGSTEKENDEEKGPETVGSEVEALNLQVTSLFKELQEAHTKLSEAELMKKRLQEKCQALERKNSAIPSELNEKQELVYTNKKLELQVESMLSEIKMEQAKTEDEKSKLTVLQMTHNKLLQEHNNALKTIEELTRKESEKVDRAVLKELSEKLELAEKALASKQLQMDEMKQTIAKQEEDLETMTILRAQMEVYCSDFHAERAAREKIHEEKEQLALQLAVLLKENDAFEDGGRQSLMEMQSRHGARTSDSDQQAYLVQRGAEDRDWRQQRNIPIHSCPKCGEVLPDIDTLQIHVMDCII

The compound `C[C@H]1O[C@@H](O[C@H]2CC[C@@]3(C)[C@@H](CC[C@]4(C)[C@@H]3C=C[C@]35OC[C@@]6(CCC(C)(C)C[C@H]63)[C@H](O)C[C@]54C)[C@]2(C)CO)[C@H](O)[C@@H](O[C@@H]2O[C@H](CO)[C@@H](O)[C@H](O)[C@H]2O)[C@H]1O` [Saikosaponin D] gave a KD of 5.115 × e^−5 M.
